Tests used:
[1] = tested on: NIT-1 β-cells; assay: MTT viability of STZ-treated NIT-1 islet β-cells; assay type: cell-based, mouse; settings: for A540 (MTT, relative number of viable cells): 30 h, 2% serum, mean ± std. dev. n=8
Text: (§1) In the Examples below, an MTT assay was used to determine the relative number of viable cells after treatments. This calorimetric assay is based on the ability of living cells, but not dead cells, to reduce 3-(4,5-dimethyl thiazol-2-yl)-2,5-diphenyltetrazolium bromide. [Carmichael, J, De Graff, W. G., Gazdar, A. F., Minna, J. D. and Mitchell, J. B. (1987) Evaluation of tetrazolium-based semiautomated calorimetric assay: Assessment of chemosensitivity testing. Cancer Res. 47, 936-942], which is hereby incorporated by reference. For this assay, cells were plated in 96-well plates, and the MTT assay was performed as described in the above article both in untreated and treated cell cultures. The MTT assay also was performed at the time when the treatment was started to allow for assessment of the proliferation and survival rates in the control and treated cell cultures. In the MTT assay, higher values mean proportionally higher numbers of viable cells.
NIT-1 β-cells, originally isolated from transgenic NOD mouse carrying SV 40 large T antigen gene on a rat insulin promoter, were obtained from American Type Culture Collection (ATCC CRL-2055). NIT-1 cells contain and secrete insulin, while at the same time they retained their ability to proliferate in the presence of an appropriate stimulus. The cells, maintained in Ham's F12K medium containing 10% heat-inactivated dialyzed fetal bovine serum, were used between passages 32-35.
In this experiment, NIT-1 cells were seeded into 96-well plates. After 24 hours, the medium was replaced with fresh 2% fetal bovine serum containing medium, followed by treatments with 2-50 μM of CCompound1 and 30 min later with 20 mM STZ. Treatments were for 30 hours followed by the MTT assay to determine the relative number of viable cells (expressed as A540).

[2] = tested on: RINm5F rat islet β-cells; assay: MTT viability of palmitic acid-treated RINm5F islet β-cells; assay type: cell-based; settings: for A540 (MTT, relative number of viable cells): 24 h, mean ± S.D. n=8
Text: as §1
RINm5F rat islet β-cells (ATCC CRL-2058; secondary clone of RIN-m clone secreting only insulin, but no somatostatin or glucagon) were used to determine if CCompound1 could protect them against fatty acid-induced cell death. The medium for propagation: RPMI 1640/10% fetal bovine serum.
Palmitic acid (purchased from Sigma-Aldrich) was dissolved in 200 mM ethanol and then diluted 1:25 with Krebs-Ringer-Hepes buffer containing 20% bovine serum albumin (fraction V, fatty acid-free; from Sigma-Aldrich). The fatty acid mixture was gently agitated at 37° C. under nitrogen overnight. The cells were seeded into 96-well plates at a density of 8,000 cells per well. When the cultures reached 70% confluence, fatty acid or a corresponding amount of albumin and CCompound1 (suspended in the medium) were added to the medium and incubations continued for 24 hours. This was followed by the MTT assay to determine the relative number of viable cells.

[3] = tested on: STZ-treated mice; assay: STZ-treated mice, third experiment (fasted): blood glucose, body weight, survival; assay type: in vivo
Protocol: The effects of CCompound1 on blood glucose level and body weight as well as survival were also examined in a third experiment. Animals weighing between 24.6-25.3 g were selected for this experiment with each group consisting of 6 mice. One group of mice (group 1) received no treatment over the entire experiment, while in the other two groups (groups 2-3), animals were injected (i.p.) with 210 mg/kg of STZ on day 0. Animals in group 3 were also injected (i.p.) with 4.5 mg per kg of CCompound1 once daily for 10 days starting 24 h prior to STZ treatment. CCompound1 and STZ were dissolved as previously indicated.
In this experiment the animals were fasted for 13-14 hours (fasted overnight from 6 p.m. to 7-8 a.m. and returned to normal diet from 8 a.m. to 6 p.m) prior to taking the blood samples.

Structure (SMILES): Cc1c(OCC(O)C[N+](C)(C)C)cc2c(=O)c3ccccc3sc2c1C.[Cl-] (stereo not drawn) [CCcompound1, [3-(3,4-Dimethyl-9-oxo-9H-thioxanthen-2-yloxy)-2-hydroxypropyl]trimethyl-ammonium chloride]
- effect on the inhibitory effects of STZ on cell proliferation ([1]; 10 μM): almost fully reverses
- effect on the inhibitory effects of STZ on cell proliferation ([1]; 50 μM): added to the inhibitory effects of STZ
- effect on the inhibitory effects of STZ on cell proliferation ([1]; 2-5 μM): partially reverses
- A540 (MTT, relative number of viable cells) ([1]; STZ 20 mM + compound 2 μM): 0.934 ± 0.053
- A540 (MTT, relative number of viable cells) ([1]; STZ 20 mM + compound 5 μM): 1.078 ± 0.068
- A540 (MTT, relative number of viable cells) ([1]; STZ 20 mM + compound 10 μM): 1.144 ± 0.056
- A540 (MTT, relative number of viable cells) ([1]; STZ 20 mM + compound 50 μM): 0.718 ± 0.071
- effect on palmitic acid-induced decrease in the number of viable cells ([2]; 5 μM): partially prevented
- effect on palmitic acid-induced decrease in the number of viable cells ([2]; 10 μM): almost fully prevented
- effect on palmitic acid-induced decrease in the number of viable cells ([2]; 50 μM): added to the inhibitory effect of palmitic acid
- A540 (MTT, relative number of viable cells) ([2]; palmitic acid 0.5 mM + compound 5 μM): 1,198 ± 0.086
- A540 (MTT, relative number of viable cells) ([2]; palmitic acid 0.5 mM + compound 10 μM): 1,251 ± 0.069
- A540 (MTT, relative number of viable cells) ([2]; palmitic acid 0.5 mM + compound 50 μM): 0.836 ± 0.080
- Blood glucose ([3]; STZ 210 mg/kg i.p. day 0 + compound 4.5 mg/kg i.p. daily for 10 days from day −1, fasted, day −1): 2.1 ± 0.3 mM
- Blood glucose ([3]; STZ + compound 4.5 mg/kg i.p. daily for 10 days (stopped day 9), fasted, day 14): 11.8 ± 1.0 mM
- Blood glucose ([3]; STZ + compound 4.5 mg/kg i.p. daily for 10 days (stopped day 9), fasted, day 21): 12.5 ± 0.8 mM
- Body weight ([3]; STZ + compound 4.5 mg/kg i.p. daily for 10 days, day 0): 25.1 ± 0.5 g
- Body weight ([3]; STZ + compound 4.5 mg/kg i.p. daily for 10 days, day 3): 24.3 ± 1.0 g
- Body weight ([3]; STZ + compound 4.5 mg/kg i.p. daily for 10 days, day 5): 24.2 ± 0.9 g
- Body weight ([3]; STZ + compound 4.5 mg/kg i.p. daily for 10 days, day 7): 24.1 ± 0.7 g
- Body weight ([3]; STZ + compound 4.5 mg/kg i.p. daily for 10 days, day 9): 24.3 ± 0.8 g
- Body weight ([3]; STZ + compound 4.5 mg/kg i.p. daily for 10 days, day 11): 24.3 ± 0.9 g
- Body weight ([3]; STZ + compound 4.5 mg/kg i.p. daily for 10 days, day 13): 24.5 ± 1.1 g
- Body weight ([3]; STZ + compound 4.5 mg/kg i.p. daily for 10 days, day 15): 23.9 ± 0.4 g
- Body weight ([3]; STZ + compound 4.5 mg/kg i.p. daily for 10 days, day 17): 24.5 ± 1.1 g
- Body weight ([3]; STZ + compound 4.5 mg/kg i.p. daily for 10 days, day 21): 24.4 ± 1.0 g
- Blood glucose ([3]; STZ + compound 4.5 mg/kg i.p. daily for 10 days, fasted, day 0): 2.1 ± 0.2 mM
- Blood glucose ([3]; STZ + compound 4.5 mg/kg i.p. daily for 10 days, fasted, day 1): 6.7 ± 0.7 mM
- Blood glucose ([3]; STZ + compound 4.5 mg/kg i.p. daily for 10 days, fasted, day 2): 7.1 ± 0.5 mM
- Blood glucose ([3]; STZ + compound 4.5 mg/kg i.p. daily for 10 days, fasted, day 3): 7.2 ± 0.5 mM
- Blood glucose ([3]; STZ + compound 4.5 mg/kg i.p. daily for 10 days, fasted, day 4): 7.6 ± 0.4 mM
- Blood glucose ([3]; STZ + compound 4.5 mg/kg i.p. daily for 10 days, fasted, day 5): 8.2 ± 0.4 mM
- Blood glucose ([3]; STZ + compound 4.5 mg/kg i.p. daily for 10 days, fasted, day 6): 8.6 ± 0.3 mM
- Blood glucose ([3]; STZ + compound 4.5 mg/kg i.p. daily for 10 days, fasted, day 7): 9.3 ± 0.5 mM
- Blood glucose ([3]; STZ + compound 4.5 mg/kg i.p. daily for 10 days, fasted, day 8): 10.4 ± 0.7 mM
- Blood glucose ([3]; STZ + compound 4.5 mg/kg i.p. daily for 10 days, fasted, day 9): 11.0 ± 1.1 mM
- mice alive on day 53 ([3]; STZ + compound, 6 mice per group): 6
- body weight lost ([3]; co-treated with compound and STZ, day 0 to day 21): 0.7 to 1.2 g
- reduction of the effects of STZ on blood glucose level ([3]; days 3 and 4): more than 50%
